Results taken from patent US20180271847A1, “TREATMENT OF ACUTE TRAUMATIC INJURY” (priority 2015, published 2018).

Experiments:
[1] = tested on: contusion injuries to the spinal cord; assay: Behavioral analysis of motor function after spinal cord contusion injury; type: in vivo, Long Evans rats; conditions: rats
Method: Experiments were initiated with behavioral analysis of rats receiving contusion injuries to the spinal cord, which is one of the most widely studied of all experimental models of traumatic injury. 8-10 week old Long Evans rats (female) underwent laminectomy at thoracic vertebrae 9 and a 200 kilodyne impact was delivered to the spinal cord using an the Infinite Horizons impactor. Animals were allowed to recover on a heated pad and then treatment was started 24 hours after surgery in order to determine whether a clinically useful window of opportunity for initiation of treatment exists for use of this intervention. Animals received 1 mg/kg 4-AP twice a day for seven days, then received 1 mg/kg 4-AP […] for the following seven days. After two weeks, the animals were taken off 4-AP entirely and allowed to continue for 2 weeks to test for stability of recovery.
FIGS. 1-4 provide evidence of enhanced recovery of a variety of aspects of motor function. […] Of particular interest were observations that when rats were switched to once-a-day administration of 4-AP and all behavioral analyses were conducted at a time point when the 4-AP half-life in rats predicts that levels in vivo were far below those necessary to observe any effects on motor function, recovery of function was still seen at a time when active levels of 4-AP would not have been present. […] FIG. 2 provides information on the speed of the paw during its swing movement (i.e., stride length/swing time). […] FIG. 3 provides information on the distance between the outer toes (i.e., toe spread), a sensitive indicator of normal motor function in the foot itself. […] In contrast, rats treated with 4-AP show normal behavior beginning 10 days post-injury, and this behavior is maintained when drug treatment ends at day 14. FIG. 4 provides information on the length of the foot print, a sensitive indicator of normal motor function in the foot itself. […] In contrast, rats treated with 4-AP show normal behavior beginning 10 days post-injury, and this behavior is maintained when drug treatment ends at day 14. All improvements were durable when treatment was stopped at 2 weeks post-injury.

[2] = tested on: P-zero myelin protein; assay: P0 myelin protein in tissue lysates after sciatic nerve crush; type: in vivo; conditions: mice, tissue lysates at 21 days post-injury/treatment
[3] = tested on: lipofuscin; assay: Auto-fluorescence / lipofuscin accumulation after spinal cord contusion injury; type: in vivo; conditions: rats with contusion injuries to the spinal cord
Excerpt: 4-aminopyridine administration decreases auto-fluorescence following contusion injury to the spinal cord. One of the responses to tissue injury in a broad variety of tissues is the accumulation of substances that may be given the general name of lipofuscin, a name given to lipid-containing residues of lysosomal digestion. This pigment is thought to be the product of oxidation of unsaturated fatty acids and is considered indicative of membrane damage of a nature that occurs widely in tissue injury, a variety of diseases and in aging. Lipofuscin is most readily observed as an auto-fluorescent component of tissue that is seen when tissue is excited with a wide range of […] wavelengths normally used for studying fluorescently labeled proteins, such as antibodies, that are widely used in studying all of the tissues of the body. Lipofuscin accumulation has been reported for cell types of a wide range of tissues, particularly after injury, including liver, kidney, heart muscle, retina, adrenal gland, nerve cells, and red-blood cells, in post-traumatic arthritis and in other tissues.
This is another wholly unexpected ability of 4-AP to beneficially modulate an outcome of traumatic injury that is applicable to a wide range of different tissues.

[4] = tested on: traumatic damage to the peripheral nervous system; assay: Recovery of function after traumatic damage to the peripheral nervous system; type: in vivo; conditions: following traumatic damage to the peripheral nervous system
[5] = tested on: Sox 9; assay: Sox 9 immunofluorescence in spinal cord sections after contusion injury; type: in vivo; conditions: rats with contusion injuries to the spinal cord, versus control
Excerpt: FIG. 5A and FIG. 5B are images illustrating a section of control (FIG. 5A) and 4-AP (FIG. 5B) treated animals labeled with anti-Sox 9 (bright spots) and DAPI (darker grey). Arrows highlight the cells that were used to define the baseline threshold for Sox 9 immunofluorescence. Size bar represents 20 μm. FIG. 5C is a graph showing quantification of FIG. 5A and FIG. 5B using the threshold shown in A as baseline. N=3, *p=0.045 t-test.
The ability of daily 4-AP administration to provide benefit at the tissue level was investigated, leading to the wholly unexpected discovery of effects of 4-AP that are relevant to traumatic injuries in a wide range of tissues. The first such observation came from examination of the expression of Sox 9, a transcription factor that is expressed in a wide range of tissues of the nervous system, other excitable tissues and tissues that are not considered to be excitable (including, for example, pancreas, lung, chondrocytes, cartilage, liver, breast, prostate, colorectal, intestine and testis). Among other roles, Sox 9 controls production and expression of chondroitin sulfate proteoglycan, a critical component of scar in many different tissues. […]

[6] = tested on: motor neurons; assay: Count of large NeuN+ putative motor neurons in spinal cord 28 days after injury; type: in vivo; conditions: rats, 28 days after spinal cord injury; large NeuN+ cells, ventral side of the cord
Excerpt: FIGS. 8A-8C show the rescue of motor neurons by administration of 4-AP in acute traumatic injury to the spinal cord of the central nervous system. Another example of an unanticipated ability of the administration of 4-AP to provide benefit in acute traumatic injury was obtained by examining the number of motor neurons present in spinal cords of rats analyzed 28 days after injury, as in Example 1. Tissue sections were labeled with antibodies to the NeuN antigen, which is a marker of all neuronal populations. Due to the size and location of these neurons, they can only be motor neurons. Large neurons on the ventral side of the cord were then counted, in regions similarly distal or proximal to the lesion site. […] FIGS. 8B and 8C are graphs showing quantification of large NeuN+ cells in 1 mm^3 region proximal (p=0.06) and distal (p=0.04) to the lesion edge in 4-AP and control sections. […]
Rescue of motor neurons by administration of 4-AP in acute traumatic injury to the spinal cord of the central nervous system. Another example of an unexpected ability of the administration of 4-AP to provide benefit in acute traumatic injury was obtained by examining the number of motor neurons present in spinal cords of rats analyzed 28 days after injury, as in Example 1. […] Large neurons on the ventral side of the cord were then counted, in regions similarly distal or proximal to the lesion site.

[7] = spinal cord contusion, 1 mg/kg 4-AP for 14 days, maintained after treatment ends at day 14

Nc1ccncc1 [4-AP, 4-aminopyridine]
Basso, Beattie and Bresnahan (BBB) scores, recovery versus placebo (saline) ([1]; 200 kilodyne contusion at thoracic vertebrae 9, 1 mg/kg 4-AP twice a day for seven days then seven further days, started 24 hours after surgery): significant improvement over placebo (saline) treated rats as early as 3 days after treatment | length of the foot print: normal behavior beginning [1, 7]: 10 days post-injury | toe spread (distance between the outer toes): normal behavior beginning [1, 7]: 10 days post-injury | return to normal swing speed (stride length/swing time) ([1]; spinal cord contusion, 1 mg/kg 4-AP for 14 days, normal defined by sham surgery group, maintained after treatment ends at day 14): ≤ 10 days post-injury | motor function after treatment was stopped 14 days after injury ([1]; spinal cord contusion, 1 mg/kg 4-AP for 14 days, through the rest of the 28 days of analysis): durable improvements in motor function | more P0 protein in the lesion area than in nerves of vehicle-treated animals [2]: 61+/−15% | lipofuscin accumulation (tissue auto-fluorescence) [3]: little evidence of lipofuscin accumulation | recovery of motor function and electrophysiological function [4]: more rapid recovery of motor function and electrophysiological function | expression of Sox9 [5]: greatly decrease the expression of Sox9 | number of motor neurons in regions distal to the injury [6]: clearly significant increase in the number of motor neurons | number of motor neurons in regions proximal to the injury [6]: very similar degree of increase in motor neurons
